Experimental data: ChEMBL document CHEMBL1201862, “PubChem BioAssay data set” (2004)
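Method: 48-hour compound exposure of cells in 96-well plates, five concentrations, linear interpolation of endpoints. At the GI50, growth is halved.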 Activity calls are given as the source filed them. Rule as the data show it: active = GI50 up to about 1.1 µM and inactive = higher. *1 amine or outer side, *2 acyl side, *3 side chain or, on linkers, in order; H or OH if unused. Where a SMILES comes first, the peptide text is derived from it. Bridges are numbered along the chain shown (N, C = ends). Roman numbers before positions name the chains, in order. [ ]: non-standard residue; d: D form. Actinocin(9to1) = Cc1c2oc3c(C)ccc(C(=O)[*:1])c3nc-2c(C(=O)[*:2])c(N)c1=O; NMeV = CN[CH](C(=O)O)C(C)C; Sar = CNCC(=O)O

Key:
Experiment in all cases: inhibition of tumour cell growth, NCI panel, 48 h
CAKI-1 = system: CAKI-1
COLO 205 = system: COLO 205
DU-145 = system: DU-145
HT-29 = system: HT-29
IGROV-1 = system: IGROV-1
LOX IMVI = system: LOX IMVI
MCF7 = system: MCF7
MDA-MB-231 = system: MDA-MB-231
MDA-MB-435 = system: MDA-MB-435
MDA-N = system: MDA-N
NCI-H226 = system: NCI-H226
NCI-H460 = system: NCI-H460
NCI-H522 = system: NCI-H522
OVCAR-3 = system: OVCAR-3
OVCAR-4 = system: OVCAR-4
RXF 393 = system: RXF 393
SNB-19 = system: SNB-19
U-251 = system: U-251
UACC-62 = system: UACC-62
UO-31 = system: UO-31

SMILES | GI50 (CAKI-1) | GI50 (COLO 205) | GI50 (DU-145) | GI50 (HT-29) | GI50 (IGROV-1) | GI50 (LOX IMVI) | GI50 (MCF7) | GI50 (MDA-MB-231) | GI50 (MDA-MB-435) | GI50 (MDA-N) | GI50 (NCI-H226) | GI50 (NCI-H460) | GI50 (NCI-H522) | GI50 (OVCAR-3) | GI50 (OVCAR-4) | GI50 (RXF 393) | GI50 (SNB-19) | GI50 (U-251) | GI50 (UACC-62) | GI50 (UO-31)
COc1cc(O)c2c(c1)C(O)C(O)CC1OC1C(=O)/C=C/CC(C)OC2=O (stereo not given) | 1.08 µM (active) | 0.0877 µM (active) | 15.7 µM (inactive) | 0.0794 µM (active) | 2.48 µM (inactive) | 3.88 µM (inactive) | 4.07 µM (inactive) | 3.86 µM (inactive) | 0.838 µM (active) | 0.454 µM (active) | 12.9 µM (inactive) | 7.03 µM (inactive) | 1.52 µM (inactive) | 2.74 µM (inactive) | 3.27 µM (inactive) | 0.982 µM (active) | 19.8 µM (inactive) | 8.18 µM (inactive) | 0.0904 µM (active) | 1.17 µM (inactive)
COc1cccc(CSCC(=O)O)c1 | > 100 µM (inactive) | > 100 µM (inactive) | > 100 µM (inactive) | > 100 µM (inactive) | > 100 µM (inactive) | > 100 µM (inactive) | > 100 µM (inactive) | > 100 µM (inactive) | > 100 µM (inactive) | > 100 µM (inactive) | > 100 µM (inactive) | > 100 µM (inactive) | > 100 µM (inactive) | > 100 µM (inactive) | > 100 µM (inactive) | > 100 µM (inactive) | > 100 µM (inactive) | > 100 µM (inactive) | > 100 µM (inactive) | > 100 µM (inactive)
Cc1c2oc3c(C)ccc(C(=O)NC4C(=O)NC(C(C)C)C(=O)N5CCCC5C(=O)N(C)CC(=O)N(C)C(C(C)C)C(=O)OC4C)c3nc-2c(C(=O)NC2C(=O)NC(C(C)C)C(=O)N3CCCC3C(=O)N(C)CC(=O)N(C)C(C(C)C)C(=O)OC2C)c(N)c1=O (stereo not given) (I: TVP[Sar][NMeV] / II: TVP[Sar][NMeV]; ester I:1-I:C, II:1-II:C; linker I:N-II:N via Actinocin(9to1); configuration not given here) | 0.00224 µM (active) | 0.000161 µM (active) | 0.000359 µM (active) | < 0.0001 µM (active) | 0.00011 µM (active) | < 0.0001 µM (active) | < 0.0001 µM (active) | 0.00494 µM (active) | 0.000461 µM (active) | 0.000197 µM (active) | 0.000891 µM (active) | < 0.0001 µM (active) | < 0.0001 µM (active) | 0.00105 µM (active) | 0.000445 µM (active) | 0.00136 µM (active) | 0.000112 µM (active) | < 0.0001 µM (active) | < 0.0001 µM (active) | 0.0152 µM (active)
O=[N+]([O-])c1ccccc1S(=O)(=O)c1cc(O)cc2c1NCCC2 | 35.2 µM (inactive) | 17.1 µM (inactive) | 20.7 µM (inactive) | 13.3 µM (inactive) | 17.1 µM (inactive) | 14.2 µM (inactive) | 7.45 µM (inactive) | 18.2 µM (inactive) | 18.8 µM (inactive) | 17.8 µM (inactive) | 28.1 µM (inactive) | 23.4 µM (inactive) | 7.5 µM (inactive) | 7.55 µM (inactive) | 15.3 µM (inactive) | 16.4 µM (inactive) | 28.5 µM (inactive) | 20.2 µM (inactive) | 15.2 µM (inactive) | 15.5 µM (inactive)
O=C1c2ccccc2-c2c1c1ccccc1c(=O)n2-c1cccnc1 | 35.3 µM (inactive) | > 68.1 µM (inactive) | > 100 µM (inactive) | > 63.7 µM (inactive) | 34.2 µM (inactive) | 32.1 µM (inactive) | 22.5 µM (inactive) | > 59.7 µM (inactive) | > 100 µM (inactive) | > 100 µM (inactive) | 61.5 µM (inactive) | 6.24 µM (inactive) | 10.5 µM (inactive) | > 71.3 µM (inactive) | > 49.3 µM (inactive) | > 100 µM (inactive) | 24.6 µM (inactive) | 22.7 µM (inactive) | 32 µM (inactive) | > 48.8 µM (inactive)
Cc1c2oc3c(C)cnc(C(=O)NC4C(=O)NC(C(C)C)C(=O)N5CCCC5C(=O)N(C)CC(=O)N(C)C(C(C)C)C(=O)OC4C)c3nc-2c(C(=O)NC2C(=O)NC(C(C)C)C(=O)N3CCCC3C(=O)N(C)CC(=O)N(C)C(C(C)C)C(=O)OC2C)c(N)c1=O (stereo not given) | 10.9 µM (inactive) | 1.8 µM (inactive) | 4.72 µM (inactive) | 1.29 µM (inactive) | 0.687 µM (active) | 0.348 µM (active) | 0.805 µM (active) | 9.77 µM (inactive) | 2.74 µM (inactive) | 0.979 µM (active) | 2.65 µM (inactive) | 1.03 µM (active) | 0.673 µM (active) | 10.4 µM (inactive) | 10.8 µM (inactive) | 1.12 µM (active) | 0.682 µM (active) | 0.931 µM (active) | 1.32 µM (inactive) | 14.2 µM (inactive)
COc1ccc(/C=C2\C[C@H]3[C@@H]4CCC5=C/C(=N/O)CC[C@]5(C)[C@H]4CC[C@]3(C)\C2=N\O)cc1 | 38.3 µM (inactive) | 14.5 µM (inactive) | 13.4 µM (inactive) | 6.85 µM (inactive) | 37.3 µM (inactive) | 17.9 µM (inactive) | 5.01 µM (inactive) | 31.6 µM (inactive) | 26.5 µM (inactive) | 15.6 µM (inactive) | 19.1 µM (inactive) | 6.59 µM (inactive) | 14.9 µM (inactive) | 10.2 µM (inactive) | 25.7 µM (inactive) | 7.1 µM (inactive) | 20 µM (inactive) | 25.3 µM (inactive) | 14.5 µM (inactive) | 4.53 µM (inactive)
COc1ccc2c(-c3ccc(OCCN(C)C)cc3)c(Oc3ccc(Cl)cc3)c(=O)oc2c1 | 11.1 µM (inactive) | 2.23 µM (inactive) | 13.7 µM (inactive) | 6.56 µM (inactive) | 3.37 µM (inactive) | 2.19 µM (inactive) | 2.52 µM (inactive) | 6.79 µM (inactive) | 2.85 µM (inactive) | 2.06 µM (inactive) | 23.9 µM (inactive) | 5.58 µM (inactive) | 4.07 µM (inactive) | 6.17 µM (inactive) | 20 µM (inactive) | 4.18 µM (inactive) | 8.02 µM (inactive) | 3.4 µM (inactive) | 2.75 µM (inactive) | 3.28 µM (inactive)
